Reference: PMC7438494 (Communications Biology, 2020)
Where two headings read alike, the source gives them in different places.

Target: human ATP synthase (Homo sapiens, UniProt P00846+P05496)
Assay: biochemical
Type: biochemical

SMILES: COc1nc2ccc(Br)cc2cc1[C@@H](c1ccccc1)[C@@](O)(CCN(C)C)c1cccc2ccccc12 [BDQ, Bedaquiline]
- activity at 1 µM (Human Mito, 4th exp (18_12_26), BDQ 1 uM, read-out: Cyanide sensitive % activity): 8.67%
- activity at 2 µM (Human Mito, 4th exp (18_12_26), BDQ 2 uM, read-out: Cyanide sensitive % activity): 2.82%
- activity at 5 µM (Human Mito, 4th exp (18_12_26), BDQ 5 uM, read-out: Cyanide sensitive % activity): -2.55%
- activity at 10 µM (Human Mito, 4th exp (18_12_26), BDQ 10 uM, read-out: Cyanide sensitive % activity): 0%
- Cyanide sensitive (Human Mito, 5th exp (19), BDQ in DMSO, Bedaquiline 5e-5 μM, 60 min): 8.081 nmol/min/mg
- Cyanide sensitive (Human Mito, 5th exp (19), BDQ in DMSO, Bedaquiline 0.0005 μM, 60 min): 7.799 nmol/min/mg
- activity at 0.0005 µM (Human Mito, 5th exp (19), BDQ in DMSO, Bedaquiline 0.0005 μM, 60 min, read-out: % activity): 75.5%
- Cyanide sensitive (Human Mito, 5th exp (19), BDQ in DMSO, Bedaquiline 0.005 μM, 60 min): 7.932 nmol/min/mg
- activity at 0.005 µM (Human Mito, 5th exp (19), BDQ in DMSO, Bedaquiline 0.005 μM, 60 min, read-out: % activity): 71.9%
- Cyanide sensitive (Human Mito, 5th exp (19), BDQ in DMSO, Bedaquiline 0.1 μM, 60 min): 7.371 nmol/min/mg
- activity at 0.1 µM (Human Mito, 5th exp (19), BDQ in DMSO, Bedaquiline 0.1 μM, 60 min, read-out: % activity): 76.1%
- Cyanide sensitive (Human Mito, 5th exp (19), BDQ in DMSO, Bedaquiline 0.2 μM, 60 min): 5.1485 nmol/min/mg
- activity at 0.2 µM (Human Mito, 5th exp (19), BDQ in DMSO, Bedaquiline 0.2 μM, 60 min, read-out: % activity): 61.2%
- Cyanide sensitive (Human Mito, 5th exp (19), BDQ in DMSO, Bedaquiline 0.5 μM, 60 min): 7.123 nmol/min/mg
- activity at 0.5 µM (Human Mito, 5th exp (19), BDQ in DMSO, Bedaquiline 0.5 μM, 60 min, read-out: % activity): 73.7%
- Cyanide sensitive (Human Mito, 5th exp (19), BDQ in DMSO, Bedaquiline 0.65 μM, 60 min): 5.712 nmol/min/mg
- activity at 0.65 µM (Human Mito, 5th exp (19), BDQ in DMSO, Bedaquiline 0.65 μM, 60 min, read-out: % activity): 69.7%
- Cyanide sensitive (Human Mito, 5th exp (19), BDQ in DMSO, Bedaquiline 1 μM, 60 min): -0.04135 nmol/min/mg
- activity at 1 µM (Human Mito, 5th exp (19), BDQ in DMSO, Bedaquiline 1 μM, 60 min, read-out: % activity): 11.1%
- Cyanide sensitive (Human Mito, 5th exp (19), BDQ in DMSO, Bedaquiline 2 μM, 60 min): -0.9975 nmol/min/mg
- activity at 2 µM (Human Mito, 5th exp (19), BDQ in DMSO, Bedaquiline 2 μM, 60 min, read-out: % activity): 5%
- Cyanide sensitive (Human Mito, 5th exp (19), BDQ in DMSO, Bedaquiline 5 μM, 60 min): -2.758 nmol/min/mg
- activity at 5 µM (Human Mito, 5th exp (19), BDQ in DMSO, Bedaquiline 5 μM, 60 min, read-out: % activity): 0.69%
- Cyanide sensitive (Human Mito, 5th exp (19), BDQ in DMSO, Bedaquiline 10 μM, 60 min): -0.848 nmol/min/mg
- activity at 10 µM (Human Mito, 5th exp (19), BDQ in DMSO, Bedaquiline 10 μM, 60 min, read-out: % activity): 3.96%
- activity at 0.0005 µM (Human Mito, 5th exp (19_01_02), BDQ 0.0005 uM, read-out: Cyanide sensitive % activity): 75.5%
- activity at 0.005 µM (Human Mito, 5th exp (19_01_02), BDQ 0.005 uM, read-out: Cyanide sensitive % activity): 71.9%
- activity at 0.1 µM (Human Mito, 5th exp (19_01_02), BDQ 0.1 uM, read-out: Cyanide sensitive % activity): 76.1%
- activity at 0.2 µM (Human Mito, 5th exp (19_01_02), BDQ 0.2 uM, read-out: Cyanide sensitive % activity): 61.2%
- activity at 0.5 µM (Human Mito, 5th exp (19_01_02), BDQ 0.5 uM, read-out: Cyanide sensitive % activity): 73.7%
- activity at 0.65 µM (Human Mito, 5th exp (19_01_02), BDQ 0.65 uM, read-out: Cyanide sensitive % activity): 69.7%
- activity at 1 µM (Human Mito, 5th exp (19_01_02), BDQ 1 uM, read-out: Cyanide sensitive % activity): 11.1%
- activity at 2 µM (Human Mito, 5th exp (19_01_02), BDQ 2 uM, read-out: Cyanide sensitive % activity): 5%
- activity at 5 µM (Human Mito, 5th exp (19_01_02), BDQ 5 uM, read-out: Cyanide sensitive % activity): 0.69%
- activity at 10 µM (Human Mito, 5th exp (19_01_02), BDQ 10 uM, read-out: Cyanide sensitive % activity): 3.96%
- Cyanide sensitive % activity, Average (Human Mito, average of experiments, BDQ 5e-6 uM): 75.05%
- Cyanide sensitive % activity, Average (Human Mito, average of experiments, BDQ 5e-5 uM): 71.33%
- activity at 0.0005 µM (Human Mito, average of experiments, BDQ 0.0005 uM, read-out: Cyanide sensitive % activity, Average): 78.5%
- activity at 0.005 µM (Human Mito, average of experiments, BDQ 0.005 uM, read-out: Cyanide sensitive % activity, Average): 68%
- activity at 0.1 µM (Human Mito, average of experiments, BDQ 0.1 uM, read-out: Cyanide sensitive % activity, Average): 70.6%
- activity at 0.2 µM (Human Mito, average of experiments, BDQ 0.2 uM, read-out: Cyanide sensitive % activity, Average): 57.6%
- activity at 0.5 µM (Human Mito, average of experiments, BDQ 0.5 uM, read-out: Cyanide sensitive % activity, Average): 52.1%
- activity at 0.65 µM (Human Mito, average of experiments, BDQ 0.65 uM, read-out: Cyanide sensitive % activity, Average): 44.5%
- activity at 0.85 µM (Human Mito, average of experiments, BDQ 0.85 uM, read-out: Cyanide sensitive % activity, Average): 27.4%
- activity at 1 µM (Human Mito, average of experiments, BDQ 1 uM, read-out: Cyanide sensitive % activity, Average): 6.29%
- activity at 2 µM (Human Mito, average of experiments, BDQ 2 uM, read-out: Cyanide sensitive % activity, Average): 0.46%
- activity at 5 µM (Human Mito, average of experiments, BDQ 5 uM, read-out: Cyanide sensitive % activity, Average): -2%
- activity at 10 µM (Human Mito, average of experiments, BDQ 10 uM, read-out: Cyanide sensitive % activity, Average): 0.62%
- activity at 0.0005 µM (Human Mito, plotted duplicates, first column, BDQ 0.0005 uM, read-out: % activity): 81.5%
- activity at 0.005 µM (Human Mito, plotted duplicates, first column, BDQ 0.005 uM, read-out: % activity): 88.5%
- activity at 0.1 µM (Human Mito, plotted duplicates, first column, BDQ 0.1 uM, read-out: % activity): 71.2%
- activity at 0.2 µM (Human Mito, plotted duplicates, first column, BDQ 0.2 uM, read-out: % activity): 59.5%
- activity at 0.5 µM (Human Mito, plotted duplicates, first column, BDQ 0.5 uM, read-out: % activity): 51.2%
- activity at 0.65 µM (Human Mito, plotted duplicates, first column, BDQ 0.65 uM, read-out: % activity): 37.6%
- activity at 0.85 µM (Human Mito, plotted duplicates, first column, BDQ 0.85 uM, read-out: % activity): 33.1%
- activity at 1 µM (Human Mito, plotted duplicates, first column, BDQ 1 uM, read-out: % activity): 8.67%
- activity at 2 µM (Human Mito, plotted duplicates, first column, BDQ 2 uM, read-out: % activity): 2.82%
- activity at 5 µM (Human Mito, plotted duplicates, first column, BDQ 5 uM, read-out: % activity): -2.55%
- activity at 10 µM (Human Mito, plotted duplicates, first column, BDQ 10 uM, read-out: % activity): -2.1%
- activity at 0.0005 µM (Human Mito, plotted duplicates, second column, BDQ 0.0005 uM, read-out: % activity): 75.5%
- activity at 0.005 µM (Human Mito, plotted duplicates, second column, BDQ 0.005 uM, read-out: % activity): 71.9%
- activity at 0.1 µM (Human Mito, plotted duplicates, second column, BDQ 0.1 uM, read-out: % activity): 76.1%
- activity at 0.2 µM (Human Mito, plotted duplicates, second column, BDQ 0.2 uM, read-out: % activity): 61.2%
- activity at 0.5 µM (Human Mito, plotted duplicates, second column, BDQ 0.5 uM, read-out: % activity): 58%
- activity at 0.65 µM (Human Mito, plotted duplicates, second column, BDQ 0.65 uM, read-out: % activity): 40%
- activity at 0.85 µM (Human Mito, plotted duplicates, second column, BDQ 0.85 uM, read-out: % activity): 32.5%
- activity at 1 µM (Human Mito, plotted duplicates, second column, BDQ 1 uM, read-out: % activity): 11.1%
- activity at 2 µM (Human Mito, plotted duplicates, second column, BDQ 2 uM, read-out: % activity): 1.13%
- activity at 5 µM (Human Mito, plotted duplicates, second column, BDQ 5 uM, read-out: % activity): 0.69%
- activity at 10 µM (Human Mito, plotted duplicates, second column, BDQ 10 uM, read-out: % activity): 3.96%
- extent of inhibition of ATP synthesis of the human enzyme (in words): nearly completely
- activity at 0.0005 µM (read-out: % activity): 89.6%
- activity at 0.1 µM (read-out: % activity): 81.7%
- activity at 0.2 µM (read-out: % activity): 77.1%
- activity at 0.5 µM (read-out: % activity): 62.5%
- activity at 0.85 µM (read-out: % activity): 54%
- activity at 1 µM (read-out: % activity): 48.4%
- activity at 2 µM (read-out: % activity): 45.8%
- activity at 10 µM (read-out: % activity): 36.3%
- inhibition at 0.2 µM (read-out: % inhibition): 22.9%
- inhibition at 0.5 µM (read-out: % inhibition): 37.5%
- inhibition at 1 µM (read-out: % inhibition): 57.4%
- inhibition at 2 µM (read-out: % inhibition): 54.2%
- inhibition at 10 µM (read-out: % inhibition): 63.7%
